We go through two compounds from PMC7614683, “A small molecule PI3Kα activator for cardioprotection and neuroregeneration” (Nature, 2023).

The test system of experiment [1] is PI3Kα-KO MEFs. Put plainly: pAKT S473 western blot, PI3Kα-KO MEFs. The class given is cell-based, mouse. Conditions: 15 min. On the procedure: Unless otherwise indicated, western blotting was performed with ECL detection. For time course studies, A549 cells were seeded at 250,000 cells per well in 6-well plates in RPMI (10% FBS + 1 mM Na-Pyruvate + 1% P/S) and allowed to adhere overnight. The next day they were serum-starved for 4 h prior to treatment with 100 nM insulin or 5 μM 1938, for the indicated time (5 min to 48 h) at 37°C, 5% CO2. For 1938 titration assays in MEFs, cells were seeded at 150,000 cells per well in 6-well plates and allowed to adhere overnight. The next day they were serum-starved for 4 h prior to treatment with insulin (1 μM), 1938 (0.2 to 30 μM, final DMSO concentration of 1.5%) or inhibitors (final DMSO concentration of ≤1.5%) for 15 min at 37°C, 5% CO2. Cells were washed twice with cold PBS and lysed using cold RIPA buffer (25 mM Tris.HCl pH 7.6, 150 mM NaCl, 1% NP-40, 1% sodium deoxycholate, 0.1% SDS supplemented with protease/phosphatase inhibitor cocktail from Merck). To remove cell debris, homogenates were spun at 13,000 rpm for 15 min at 4°C and the supernatant fraction recovered. Protein concentration was determined by colorimetric assay (BCA assay, Promega). Protein extracts were resolved by SDS-PAGE, transferred to nitrocellulose membranes, and incubated overnight at 4°C with specific antibodies as follows: anti-vinculin (Sigma #V9131) and the following antibodies from Cell Signaling Technology (CST): pAKT-S473 (CST #9271), pS6-S240/244 (CST #2215), pPRAS40-T246 (CST #2640) and total S6 (CST #2317). Primary ntibodies were used at 1:1000 dilution except anti-vinculin (1:10000). Secondary antibodies are also from Cell Signalling Technology: Anti rabbit IgG, HRP linked Antibody (CST #7074S), Anti mouse IgG, HRP linked Antibody (CST #7076S). Raw and uncropped blots are shown in Supplementary Fig. 1.

For experiment [2], the system named is PI3Kα-WT MEFs. Put plainly: Cell cycle progression by EdU staining, PI3Kα-WT MEFs. It counts as cell-based, mouse. Conditions: 24h; BYL719 as co-treatment with 1938. As to the method:
The Click-IT EdU protocol was used according to manufacturer instructions (Sigma-Aldrich #BCK-FC488-50). Briefly, MEFs were seeded at 50,000 cells per well in 6-well plates in DMEM supplemented with 10% FBS and 1% P/S, and allowed to attach overnight. The next day, cells were serum-starved for 5 h prior to compound addition for 24 h in fresh serum-free DMEM. Cells were then pulsed for 3 h with 10 μM EdU, followed by collection by trypsinization and fixation with 3.7% FA in PBS for 15 min in the dark, washed in 3% BSA and permeabilized in 1x saponin-based permeabilization buffer for 20 min in the dark. EdU was then detected using the FAM-azide assay cocktail for 30 min in the dark. Cells were washed twice in 1x saponin-based permeabilization buffer followed by analysis with flow cytometer (Novocyte Advanteon flow cytometer, Agilent). Gating strategy for flow cytometry is shown in Supplementary Fig. 2.

On to `CCN1CCN(c2ccc(Nc3cc(Nc4cccc5c4N(C(C)=O)CC5)ccn3)cc2)CC1` [Compound 1938], for which the “pAKT^S473 induction” value in experiment [1] was “no pAKT^S473 signal”. Moreover, in experiment [2], the “cell cycle progression (EdU incorporation)” value is listed as “induced cell cycle progression”.

In the case of “insulin: insulin, canonical activator of PI3Kα, used as positive control”, in experiment [1], the “pAKT^S473 induction” value is on record as “still respond to insulin”. In addition, the “cell cycle progression (EdU incorporation)” value in experiment [2] is given as “did not induce cell cycle progression”.
